According to patent publication US8691861B2, “Prodrugs of inhibitors of plasma kallikrein” (ActiveSite Pharmaceuticals, Inc., priority 2011, dated 2014):
Non-standard residues stand in square brackets, D forms with d. *: point of attachment. CH2Cl = ClC*

Tests used:
[1] = LPS or bacterial induced sepsis in animals; cited from earlier work
[2] = angiotensin-II-induced; cited from earlier work
[3] = diabetic animals; cited from earlier work
[4] = rat model of ischemic stroke; cited from earlier work
[5] = model of hemorrhagic stroke; cited from earlier work
[6] = Conversion of prodrug in vivo: plasma levels of the active plasma kallikrein inhibitor after oral dosing of the prodrug; parameters: species or system Sprague-Dawley rats; conditions: rats, 25 mg/kg oral in PEG400
Protocol: Young male Sprague-Dawley rats were orally dosed at 25 mg/kg with the prodrug 1-(4-fluorophenyl)-N-[[4-(N′-hydroxycarbamimidoyl)phenyl]methyl]-2,5-dimethyl-pyrrole-3-carboxamide dissolved in PEG400. Blood was removed at various time intervals via an arterial catheter into a citrated collection tube, and plasma generated by centrifugation. The concentration of the active plasma kallikrein inhibitor N-[(4-carbamimidoylphenyl)methyl]-1-(4-fluorophenyl)-2,5-dimethyl-pyrrole-3-carboxamide in the plasma samples were determined using LC/MS/MS.

[7] = rat models of arthritis; cited from earlier work
[8] = cited from earlier work
[9] = mouse model of middle cerebral artery occlusion; cited from earlier work
[10] = cited from earlier work; remark: listed apart in the source

In the case of H-[dP]-Phe-Arg-CH2Cl, the lesions [1] is listed as “reduce”.

In the case of N=C(N)c1ccc(CNC(=O)c2cnn(Cc3ccccc3)c2)cc1 [ASP-440], the “elevated systolic blood pressure” value [2] is given as “reduce”, the “plasma leakage into the retina” value [3] is given as “inhibits” and the cerebrovascular edema [4] is given as “reduce”. The infarction volume [4] was “reduce” and the “expansion of intracerebral hemorrhage” value [5] was “reduce”.

For Cc1cc(C(=O)NCc2ccc(/C(N)=N/O)cc2)c(C)n1-c1ccc(F)cc1 [1-(4-fluorophenyl)-N-[[4-(N′-hydroxycarbamimidoyl)phenyl]methyl]-2,5-dimethyl-pyrrole-3-carboxamide], the “absorption from the gastrointestinal tract following oral dosing” value [6] was “absorbed from the gastrointestinal tract” and the “conversion in vivo into the active compound” value [6] was “effectively converted in vivo”.

In the case of Cl.NCC1CCC(C(=O)N[C@@H](Cc2ccccc2)C(=O)Nc2ccc(CC(=O)O)cc2)CC1 (stereo partly shown) [PKSI-527], the joint swelling [7] is given as “reduce”.

In the case of NC(N)=NCCC[C@@H](N)C(=O)N[C@@H](CCCN=C(N)N)C(=O)N1CCC[C@H]1C(=O)N1C[C@H](O)C[C@H]1C(=O)NCC(=O)N[C@@H](Cc1cccs1)C(=O)N[C@@H](CO)C(=O)N1Cc2ccccc2C[C@@H]1C(=O)N1[C@H](C(=O)N[C@@H](CCCN=C(N)N)C(=O)O)C[C@@H]2CCCC[C@@H]21 [icatibant], the “effectiveness in treating HAE” value [8] is given as “effective”.

B1: C1-INH: the major endogenous inhibitor of PK (protein, UniProt P05155 23-500, looked up)
Plasma protease C1 inhibitor: NPNATSSSSQDPESLQDRGEGKVATTVISKMLFVEPILEVSSLPTTNSTTNSATKITANTTDEPTTQPTTEPTTQPTIQPTQPTTQLPTDSPTQPTTGSFCPGPVTLCSDLESHSTEAVLGDALVDFSLKLYHAFSAMKKVETNMAFSPFSIASLLTQVLLGAGENTKTNLESILSYPKDFTCVHQALKGFTTKGVTSVSQIFHSPDLAIRDTFVNASRTLYSSSPRVLSNNSDANLELINTWVAKNTNNKISRLLDSLPSDTRLVLLNAIYLSAKWKTTFDPKKTRMEPFHFKNSVIKVPMMNSKKYPVAHFIDQTLKAKVGQLQLSHNLSLVILVPQNLKHRLEDMEQALSPSVFKAIMEKLEMSKFQPTLLTLPRIKVTTSQDMLSIMEKLEFFDFSYDLNLCGLTEDPDLQVSAMQHQTVLELTETGVEAAAASAISVARTLLVFEVQQPFLFVLWDQQHKFPVFMGRVYDPRA
For B1, the infarct size [9] is listed as “reduced”, the lesions [1] is listed as “reduce” and the “clinical outcome in sepsis patients” value [10] is listed as “Clinical improvement”.
